Assay results as given in patent US20250043285A1, “Mammalian ATG8 Proteins and ATG9A Direct Sealing of Autophagosomal Membranes” (UNM Rainforest Innovations, priority 2023, published 2025).
“Also recorded” adds a separate entry of the source.

Tests used:
[1] = system: HeLa cells stably expressing HT-LC3B (LC3B^+ membranes including autophagosomes); assay: HT-LC3B MIL/MPL assay by high content microscopy (autophagic membrane sealing); format: cell-based
Procedure: HCM: MIL/MPL assay for assessment of autophagic membrane sealing. HaloTag-LC3B stable cell lines were seeded in 96 well plate at the density of 8,000 cells/well. After 18-24 h cells were induced for autophagy (EBSS for 90 min) or mitophagy (20 μM CCCP for 6 h). After induction, cells were incubated with Membrane Impermeant Ligand (MIL: Alexa Fluor-660 663Ex/690Em, 1 μM, Promega, G8471) prepared in 1×MAS buffer (220 mM mannitol, 70 mM sucrose, 10 mM KH2PO4, 5 mM MgCl2, 2 mM HEPES, 1 mM EGTA, from Sigma) containing XF-PMP (Agilent; 102504-100, 1.5 nM for Huh7 and 4 nM for HeLa cells) at 37° C. for 15 min. Cells were washed twice with 1×PBS and fixed with 4% paraformaldehyde (PFA, Sigma) in PBS for 5 min at RT. Cells were again washed twice with 1×PBS and incubated with Membrane-Permeant Ligand (MPL: TMR 5 μM, 555Ex/585Em, Promega, G8251) for 30 min at RT. Cells were washed once with 1×PBS and stained with Hoechst 33342 (Thermo Scientific, H3570, 1:1000) for 10 min at RT. Cells were washed twice and plate was scanned by High Content Microscopy (HCM) for automated image acquisition and quantification, iDEV software (Thermo) in 96-well plates^5. To test the role of mATG8s in autophagosome closure, we used the previously described strategy^41 employing stable cell lines expressing HT-LC3B, used to assess autophagosomal closure^41, 42, 45. We adapted this assay for high content microscopy (HCM) to allow unbiased operator-independent image collection, object identification and quantification, as previously established^30, 75 (FIG. 1C). […] The plates were scanned to quantify MPL^+ (sealed) and MIL^+ (unsealed) autophagosomes and any additional LC3B^+ structures, and data (quantitative HCM) presented as the number of MIL^+ or MPL^+ profiles/cell and their ratios (MIL/MPL) (FIG. 1D). MIL^+MPL^+ profiles were also observed but represented a very small fraction (<5%) and were not differentiated in quantifications.

[2] = system: Huh7^WT and Huh7^ATG9AKO cells; assay: Western blot of Parkin and COX-II under CCCP-induced mitophagy; format: cell-based; settings: BafA1 100 nM
Description: 13A. Schematic representation of proximity biotinylation proteomics (process stages) for LC MS/MS identification of APEX2-ATG9A partners in cells subjected to EBSS-induced autophagy and CCCP-induced mitophagy. 13B, List of ATG9A's key ESCRTs interactors and their peptide counts. 13C, HeLa^WT and HeLa^ATG9AKO cell line stably expressing YFP-Parkin were induced for mitophagy by CCCP or Olygomycin A and Antimycin A (OA). HCM was used to quantify mitophagy by determining remaining mtDNA puncta per cell. Blue squares, HeLa^WT stably expressing YFP-Parkin; red squares, HeLa^ATG9AKO stably expressing YFP-Parkin. 13D, HCM images illustrating mtDNA (red mask) in HeLa^WT and HeLa^ATG9AKO cells stably expressing YFP-Parkin. 13E, Western blot analysis of Huh7^WT and Huh7^ATG9AKO cells, under control conditions (full medium) or subjected to CCCP-induced mitophagy. […] 13G, Western blot analysis of LC3B lipidation in control and CCCP-induced mitophagy condition in Huh7^ATG9AWT or Huh7^ATG9AKO. 13H, Quantification of LC3B dots in Huh7^WT and Huh7^ATG9AKO cells under control conditions or subjected to CCCP-induced mitophagy. […] 13J,13K Quantification of p62 and NDP52 levels in control and proteinase K-treated samples. Statistical significance was determined by one-way ANOVA followed by Tukey's multiple comparison test, P<0.01. […]

`CO/C1=C\C(C)=C\[C@@H](C)[C@@H](O)[C@@H](C)C/C(C)=C/C=C/[C@H](OC)[C@@H]([C@@H](C)[C@@H](O)[C@H](C)[C@@]2(O)C[C@@H](O)[C@H](C)[C@@H](C(C)C)O2)OC1=O` [BafA1, Bafilomycin A1] was tested, and the “MPL^+ (sealed) profiles/cell” value ([1]; HeLa^HexaKO HT-LC3B cells, starved in EBSS 90 min, 100 nM BafA1) was “could not be enhanced by BafA1 treatment”, the “MPL^+ (sealed) profiles/cell” value ([1]; HeLa^HexaKO, HeLa^LC3TKO and HeLa^GABATKO HT-LC3B cells, EBSS, 100 nM BafA1) was “no detectable further MPL^+ increase” and the “MPL^+ (sealed) profiles/cell” value ([1]; HeLa^WT HT-LC3B cells, starved in EBSS 90 min, 100 nM BafA1, vs EBSS alone) was “further elevated; also recorded: further increased in the presence of BafA1”. The “Parkin and COX-II levels (immunoblot)” value [2] was “accumulation of Parkin and COX-II”.
